Data published in US20250320206A1, “STAT6 DEGRADERS” (Gilead Sciences, Inc., priority 2024, published 2025).

Assays:
STAT6 = molecular target: T1, STAT6 (Homo sapiens, UniProt P42226); test: Stat6 Degrader Assay (HiBiT based, HeLa LgBiT clone 4.14); format: cell-based; settings: HeLa LgBiT clone 4.14 HiBiT-STAT6, 4-24 h incubation; values given for compounds with >80% Emax; geometric mean; read-out: STAT6 degradation DC50
T1 construct: These cells express endogenous STAT6; host or cells: HeLa LgBiT clone 4.14
T1 sequence (P42226 1-847): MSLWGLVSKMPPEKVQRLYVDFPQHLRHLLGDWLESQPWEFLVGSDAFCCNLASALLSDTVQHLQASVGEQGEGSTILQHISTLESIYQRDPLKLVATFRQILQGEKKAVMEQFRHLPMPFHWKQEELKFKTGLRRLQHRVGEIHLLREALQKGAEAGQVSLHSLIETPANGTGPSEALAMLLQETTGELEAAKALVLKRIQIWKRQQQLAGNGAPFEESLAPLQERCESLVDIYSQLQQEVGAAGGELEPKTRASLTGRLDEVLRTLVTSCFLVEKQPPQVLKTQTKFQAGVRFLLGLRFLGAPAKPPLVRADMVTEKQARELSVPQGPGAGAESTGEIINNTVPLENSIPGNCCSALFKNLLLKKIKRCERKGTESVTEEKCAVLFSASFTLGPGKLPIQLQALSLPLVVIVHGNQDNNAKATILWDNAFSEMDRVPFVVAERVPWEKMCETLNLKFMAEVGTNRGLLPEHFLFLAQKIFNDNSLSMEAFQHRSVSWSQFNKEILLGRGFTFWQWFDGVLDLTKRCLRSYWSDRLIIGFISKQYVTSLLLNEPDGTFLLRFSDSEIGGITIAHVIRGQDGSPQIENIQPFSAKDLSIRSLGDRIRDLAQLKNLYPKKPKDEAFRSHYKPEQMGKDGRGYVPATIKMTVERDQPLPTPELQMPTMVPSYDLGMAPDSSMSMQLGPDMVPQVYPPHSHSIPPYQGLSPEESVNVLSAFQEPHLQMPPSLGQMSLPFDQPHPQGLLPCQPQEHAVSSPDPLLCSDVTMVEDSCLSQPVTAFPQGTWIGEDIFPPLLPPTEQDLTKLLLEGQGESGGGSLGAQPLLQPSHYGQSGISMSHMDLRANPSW
Outline: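 Luminescence from HiBiT-STAT6 complementing stably expressed LgBiT in HeLa clone 4.14 reports remaining STAT6 protein. Cells (5000/well) exposed to compound for 4-24 h at 37° C; read 0.5 h after Nano-Glo addition. 100% degradation window set with 50 μM terfenadine; percent degradation plotted against concentration.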

[1] = test system: Eotaxin-3 release in human whole blood stimulated with IL-4; test: Human Whole Blood Eotaxin-3 Assay (IL-4 stimulated eotaxin-3 release); format: cell-based; settings: IL-4 stimulation, 48 h, values given for compounds with >80% Emax, geometric mean
Outline: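 Eotaxin-3 (CCL26) release measured by MSD kit in plasma supernatant after 48 h IL-4 stimulation ([…]) of human whole blood. Compounds added in triplicate 4-fold dilutions 2 h before stimulation; 0.5% DMSO final, 37° C, 5% CO2.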

Row | Compound | DC50 (STAT6) | EC50 [1]
1 | CNc1cc(=O)n(-c2ccnc3c2cc([C@H](C)N2CC=C(c4c(C)cc(C(=O)N5CCC(CN6CCN(c7ccc8c(c7)C7(CC7)C(=O)N8C7CCC(=O)NC7=O)C[C@@H]6C)CC5)cc4F)CC2)n3C)cc1F (stereo partly drawn) [Example 3u63, 3-(5′-((S)-4-((1-(3-fluoro-4-(1-((S)-1-(4-(5-fluoro-4-(methylamino)-2-oxopyridin-1 (2H)-yl)-1-methyl-1H-pyrrolo[2,3-b]pyridin-2-yl)ethyl)-1,2,3,6-tetrahydropyridin-4-yl)-5-methylbenzoyl)-piperidin-4-yl)methyl)-3-methylpiperazin-1-yl)-2′-oxospiro[cyclopropane-1,3′-indolin]-1′-yl)-piperidine-2,6-dione] | 12.9 nM | 67.3 nM
2 | C[C@H]1CN(Cc2ccc3c(c2)C(C)(C)C(=O)N3[C@H]2CCC(=O)NC2=O)CCN1CC1CCN(C(=O)c2ccc(C3CCN([C@@H](C)c4cc5c(-n6ccc7c(c6=O)CCN7)ccnc5n4C)CC3)cc2)CC1 (single isomer, unassigned) [Example 3u185] | 2.8 nM | 2.3 nM
3 | CNc1cc(=O)n(-c2ccnc3c2cc(CN2CCC(c4c(F)cc(C(=O)N5CCC(CN6CCN(Cc7ccc8c(c7)C7(CC7)C(=O)N8C7CCC(=O)NC7=O)C[C@@H]6C)CC5)cc4F)CC2)n3C)cc1F (stereo partly drawn) [Example 3u219, 3-(5′-(((S)-4-((1-(3,5-difluoro-4-(1-((4-(5-fluoro-4-(methylamino)-2-oxopyridin-1 (2H)-yl)-1-methyl-1H-pyrrolo[2,3-b]pyridin-2-yl)methyl)piperidin-4-yl)benzoyl)piperidin-4-yl)methyl)-3-methylpiperazin-1-yl)methyl)-2′-oxospiro[cyclopropane-1,3′-indolin]-1′-yl)piperidine-2,6-dione] | 1.8 nM | 2.2 nM
4 | CNc1cc(=O)n(-c2ccnc3c2cc(CN2CCC(c4c(F)cc(C(=O)N5CCC(CN6CCN(Cc7ccc8c(c7)n(C)c(=O)n8[C@H]7CCC(=O)NC7=O)CC6)CC5)cc4F)CC2)n3C)cc1F (single isomer, unassigned) [Example 3u27] | 2 nM | 5.7 nM
5 | CNc1cc(=O)n(-c2ccnc3c2cc([C@H](C)N2CC=C(c4c(C)cc(C(=O)N5CCC(CN6CCN(Cc7ccc8c(c7)C(C)(C)C(=O)N8[C@H]7CCC(=O)NC7=O)CC6)CC5)cc4F)CC2)n3C)cc1F (single isomer, unassigned) [Example 3u88] | 3.3 nM | 12.9 nM
6 | CNc1ccn(-c2ccnc3c2cc([C@H](C)N2CC=C(c4c(C)cc(C(=O)N5CCC(CN6CCN(c7cc8c(cc7F)n(C7CCC(=O)NC7=O)c(=O)n8C)CC6)CC5)cc4F)CC2)n3C)c(=O)c1 (stereo partly drawn) [Example 3u310, 3-(6-fluoro-5-(4-((1-(3-fluoro-5-methyl-4-(1-((S)-1-(1-methyl-4-(4-(methylamino)-2-oxopyridin-1 (2H)-yl)-1H-pyrrolo[2,3-b]pyridin-2-yl)ethyl)-1,2,3,6-tetrahydropyridin-4-yl)benzoyl)-piperidin-4-yl)methyl)piperazin-1-yl)-3-methyl-2-oxo-2,3-dihydro-1H-benzo[d]imidazol-1-yl)-piperidine-2,6-dione] | 0.7 nM | 0.4 nM
7 | C[C@H]1CN(Cc2ccc3c(c2)n(C2CC2)c(=O)n3[C@H]2CCC(=O)NC2=O)CCN1CC1CCN(C(=O)c2cc(F)c(C3CCN(Cc4cc5c(-n6ccc7c(c6=O)CCN7)ccnc5n4C)CC3)c(F)c2)CC1 (single isomer, unassigned) [Example 3u107] | 2.5 nM | 2.8 nM
8 | CNc1ccn(-c2ccnc3c2cc(CN2CC=C(c4c(F)cc(C(=O)N5CCC(CN6CCN(Cc7ccc8c(c7)C(C)(C)C(=O)N8[C@@H]7CCC(=O)NC7=O)C[C@@H]6C)CC5)cc4F)CC2)n3C)c(=O)c1 (single isomer, unassigned) [Example 3u47] | 0.8 nM | 8 nM
9 | CNc1ccn(-c2ccnc3c2cc([C@H](C)N2CC=C(c4c(C)cc(C(=O)N5CCC(CN6CCN(Cc7ccc8c(c7)n(C7CC7)c(=O)n8C7CCC(=O)NC7=O)C[C@@H]6C)CC5)cc4F)CC2)n3C)c(=O)c1 (stereo partly drawn) [Example 3u111, 3-(3-cyclopropyl-5-(((S)-4-((1-(3-fluoro-5-methyl-4-(1-((S)-1-(1-methyl-4-(4-(methylamino)-2-oxopyridin-1 (2H)-yl)-1H-pyrrolo[2,3-b]pyridin-2-yl)ethyl)-1,2,3,6-tetrahydropyridin-4-yl)benzoyl)piperidin-4-yl)methyl)-3-methylpiperazin-1-yl)methyl)-2-oxo-2,3-dihydro-1H-benzo[d]imidazol-1-yl)piperidine-2,6-dione] | 0.4 nM | 0.3 nM
10 | C[C@H]1CN(Cc2ccc3c(c2)C(C)(C)C(=O)N3[C@@H]2CCC(=O)NC2=O)CCN1CC1CCN(C(=O)c2ccc(C3CCN([C@@H](C)c4cc5c(-n6ccc7c(c6=O)CCN7)ccnc5n4C)CC3)cc2)CC1 (single isomer, unassigned) [Example 3u186] | 3.5 nM | 4.6 nM
11 | Cc1cc(C(=O)N2CCC(CN3CCN(Cc4ccc5c(c4)C4(CC4)C(=O)N5C4CCC(=O)NC4=O)C[C@@H]3C)CC2)cc(F)c1C1=CCN([C@@H](C)c2cc3c(-n4cc(F)c5c(c4=O)CCN5)ccnc3n2C)CC1 (stereo partly drawn) [Example 3u116, 3-(5′-(((S)-4-((1-(3-fluoro-4-(1-((S)-1-(4-(7-fluoro-4-oxo-1,2,3,4-tetrahydro-5H-pyrrolo[3,2-c]pyridin-5-yl)-1-methyl-1H-pyrrolo[2,3-b]pyridin-2-yl)ethyl)-1,2,3,6-tetrahydropyridin-4-yl)-5-methylbenzoyl)piperidin-4-yl)methyl)-3-methylpiperazin-1-yl)methyl)-2′-oxospiro[cyclopropane-1,3′-indolin]-1′-yl)piperidine-2,6-dione] | 8.7 nM | 6 nM
12 | CNc1ccn(-c2ccnc3c2cc(CN2CC=C(c4c(C)cc(C(=O)N5CCC(CN6CCN(Cc7ccc8c(c7)n(C)c(=O)n8[C@@H]7CCC(=O)NC7=O)CC6)CC5)cc4F)CC2)n3C)c(=O)c1 (single isomer, unassigned) [Example 3u162] | 3.3 nM | 2.3 nM
13 | CNc1cc(=O)n(-c2ccnc3c2cc(CN2CCC(c4c(F)cc(C(=O)N5CCC(CN6CCN(Cc7ccc8c(c7)C(C)(C)C(=O)N8[C@H]7CCC(=O)NC7=O)CC6)CC5)cc4F)CC2)n3C)cc1F (single isomer, unassigned) [Example 3u58] | 7.6 nM | 12.6 nM
14 | CNc1cc(=O)n(-c2ccnc3c2cc(CN2CCC(c4c(F)cc(C(=O)N5CCC(CN6CCN(Cc7cc8c(cc7F)N([C@@H]7CCC(=O)NC7=O)C(=O)C87CC7)CC6)CC5)cc4F)CC2)n3C)cc1F (single isomer, unassigned) [Example 3u95] | 18.6 nM | 12.4 nM
15 | C[C@H]1CN(Cc2ccc3c(c2)n(C)c(=O)n3C2CCC(=O)NC2=O)CCN1CC1CCN(C(=O)c2cc(F)c(C3CCN(Cc4cc5c(-n6ccc7c(c6=O)CCN7)ccnc5n4C)CC3)c(F)c2)CC1 (stereo partly drawn) [Example 3u311, 3-(5-(((S)-4-((1-(3,5-difluoro-4-(1-((1-methyl-4-(4-oxo-1,2,3,4-tetrahydro-5H-pyrrolo[3,2-c]pyridin-5-yl)-1H-pyrrolo[2,3-b]pyridin-2-yl)methyl)piperidin-4-yl)benzoyl)piperidin-4-yl)methyl)-3-methylpiperazin-1-yl)methyl)-3-methyl-2-oxo-2,3-dihydro-1H-benzo[d]imidazol-1-yl)piperidine-2,6-dione] | 0.5 nM | 0.4 nM
